ChEMBL document CHEMBL2086377, “Synthesis and functionalization of cyclic sulfonimidamides: a novel chiral heterocyclic carboxylic Acid bioisostere” (ACS Med Chem Lett, 2012)

Legend:
[1] = Octanol-buffer partition coefficient, log D of the compound after 30 mins by shake flask method at pH 7.4
[2] = Dissociation constant, pKa of the compound at 10 mM by pressure-assisted capillary electrophoretic/mass spectrometric analysis; type: physicochemical
[3] = Apparent permeability of the compound from apical to basal side of human Caco2 cells at 1 uM after 60 mins by LCMS analysis; type: ADME, cell-based; conditions: Caco-2
in vitro = conditions: human, Caco-2
Description: Efflux ratio of apparent permeability of the compound from basal to apical to apical to basal side of human Caco2 cells at 1 uM after 60 mins by LCMS analysis

Compound | logD at 0.5 h [1] | pKa at 10000 µM [2] | Papp A→B at 1 h, 1 µM [3] | efflux ratio at 1 h, 1 µM (in vitro)
Cc1ccc(-c2cccc(-c3nn[nH]n3)c2)cc1 | 1.3 | 4.1 |  | 
N#Cc1cccc(-c2cccc(C(=O)O)c2)c1 | 0.3 |  |  | 
Cc1ccc(-c2cccc(C(=O)O)c2)cc1 |  | 4 |  | 
Cc1ccc(-c2cccc([S@]3(=O)=NC(=O)[C@H](C)N3)c2)cc1 |  | 6 | 66 ×10⁻⁶ cm/s | 

Results, then the compound that gave them:

logD at 0.5 h [1] | pKa at 10000 µM [2] | Papp A→B at 1 h, 1 µM [3] | efflux ratio at 1 h, 1 µM (in vitro) | Compound
0.7 | 4 | < 0.3 ×10⁻⁶ cm/s | 255 | N#Cc1cccc(-c2cccc(-c3nn[nH]n3)c2)c1
 | 5.8 | 2.3 ×10⁻⁶ cm/s |  | C[C@@H]1N[S@](=O)(c2cccc(-c3cccc(C#N)c3)c2)=NC1=O
